Laboratory results: patent US6583132B1, “Oxidant scavengers” (Duke University, priority 1993, dated 2003)

Assays:
[1] = tested on: calf pulmonary artery endothelial cell cultures (CPA-47); assay: Paraquat-induced injury of CPA-47 cells, LDH release; type: cell-based; details: varying concentrations; Paraquat 2 mM, 24 hours
Protocol: Calf pulmonary artery endothelial cell cultures (CPA-47) were grown to confluence in Ham's F-12K medium with 10% fetal bovine serum at pH 7.4 and 37° C. Cells were then trypsinized and seeded at equal densities in 24 well plates and grown to 90% confluence. Cells were washed and pre-incubated for 1 hour with varying concentrations of ZnTBAP in MEM or MEM only. Paraquat (2 mM) was added and allowed to incubate for 24 hours. Cell injury was quantitated by measuring the release of cellular lactate dehydrogenase (LDH) into the medium.

[2] = tested on: Calf pulmonary endothelial cell (CPA-47) line; assay: Glucose oxidase hydrogen peroxide injury of CPA-47, Cr^51 release; type: cell-based; details: glucose oxidase 100 Mu/ml, 4 hours; 1 hour pretreatment
Protocol: (§1) Calf pulmonary endothelial cell (CPA-47) line was grown to near confluence in 12-well plates with F-12K medium containing 10% fetal calf serum. CPA-47 cells were loaded with Cr^51 as previously described by Simon et al J. Clin. Invest. 78:1375 (1986) in high glucose minimum essential medium (DMEM). Cells were pretreated with MnTBAP (100 μM) for 1 hour and then exposed to various concentrations of hydrogen peroxide generator, glucose oxidase, for 4 hours. Cell injury was then quantitated as the specific Cr^51 release from CPA-47 cells which has been adjusted for spontaneous Cr51 release.
as §1, with “(J.” for “J.”, “(1986))” for “(1986)”, “various concentrations of either: (A) MnTBAP; (B) MnTMPyP; (C) ZnTBAP; or (D) CuZnSOD” for “MnTBAP (100 μM)”, “the” for “various concentrations of”, “oxidase (100 Mu/ml),” for “oxidase,”, “Cr^51” for “Cr51”

[3] = SOD activity (McCord and Fridovich); type: biochemical
Protocol: SOD activity can be monitored in the presence and absence of EDTA using the method of McCord and Fridovich (J. Biol. Chem. 244:6049 (1969)). The efficacy of a mimetic can be determined by measuring the effect of the mimetic on the growth of a SOD null E. coli strain versus a wild type strain. Specifically, wild type E. coli (AB1157) and SOD null E. coli. (JI132) can be grown in M9 medium containing 0.2% casamino acids and 0.2% glucose at pH 7.0 and 37° C.; growth can be monitored in terms of turbidity followed at 700 nm spectrophotometrically. Active mimetics can be tested for toxicity in mammalian cell culture by measuring lactate dehydrogenase (LDH) release. Specifically, rat L2 cells (a lung Type II like cell; (Kaighn and Douglas, J. Cell Biol. 59:106a (1973)) can be grown in Ham's F-12 medium with 10% fetal calf serum supplement at pH 7.4 and 37° C.; cells can be seeded at equal densities in 24 well culture dishes and grown to approximately 90% confluence; SOD mimetics can be added to the cells at log doses (eg micromolar doses in minimal essential medium (MEM)) and incubated for 24 hours. Toxicity can be assessed by morphology and by measuring the release of the cytosolic injury marker, LDH (eg on a thermokinetic plate reader), as described by Vassault (In: Methods of Enzymatic Analysis, Bergmeyer (ed) pp. 118-26 (1983); oxidation of NADH is measured at 340 nm). Efficacy of active mimetics can be assessed by determining their ability to protect mammalian cells against methylviologen (paraquat)-induced toxicity. Specifically, rat L2 cells grown as described above and seeded into 24 well dishes can be pre-incubated with various concentrations of the SOD mimetic and then incubated with a concentration of methylviologen previously shown to produce an LC75 in control L2 cells. Efficacy of the mimetic can be correlated with a decrease in the methylviologen-induced LDH release (St. Clair et al, FEBS Lett. 293:199 (1991)). The efficacy of SOD mimetics can be tested in vivo with mouse and/or rat models using both aerosol administration and parenteral injection. For example, male Balb/c mice can be randomized into 4 groups of 8 mice each to form a standard 2×2 contingency statistical model. Animals can be treated with either paraquat (40 mg/kg, ip) or saline and treated with SOD mimetic or vehicle control. Lung injury can be assessed 48 hours after paraquat treatment by analysis of bronchoalveolar lavage fluid (BALF) damage parameters (LDH, protein and % PMN) as previously described (Hampson et al, Tox. Appl. Pharm. 98:206 (1989); Day et al, J. Pharm. Methods 24:1 (1990)). […]
^2SOD activity determined as described by McCord and Fridovich, J. Biol. Chem. […] (1969).

EC-SOD = molecular target: T1, EC-SOD (Mus musculus, UniProt O09164); assay: Brain EC-SOD activity after diethyldithiocarbamate; type: in vivo; details: transgenic and nontransgenic mice, sacrificed one hour later
T1 construct: The brains were removed and assayed for EC-SOD and CuZn SOD activity as described above; from tissue; host or cells: mouse brain; EC-SOD separated from the homogenate on concanavalin A sepharose
T1 sequence (O09164 25-251): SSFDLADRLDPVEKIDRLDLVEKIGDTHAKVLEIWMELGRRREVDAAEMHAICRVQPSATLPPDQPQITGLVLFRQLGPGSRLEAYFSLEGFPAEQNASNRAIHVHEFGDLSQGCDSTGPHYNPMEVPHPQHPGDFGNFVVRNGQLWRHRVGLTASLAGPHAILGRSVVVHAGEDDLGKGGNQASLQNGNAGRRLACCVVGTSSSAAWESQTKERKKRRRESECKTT
Protocol: (§2) Separation of SOD isoenzymes by concanavalin A sepharose chromatography: Tissues taken from 3 mice were weighed, then combined and homogenized in 10 volumes of ice-cold 50 mM potassium phosphate, pH 7.4, with 0.3 M. KBr, 3 mM diethylenetriaminepentaacetic acid, and 0.5 mM phenylmethylsulfonyl fluoride. Separation of EC-SOD from CuZn SOD and Mn SOD was accomplished by passing tissue homogenates over a concanavalin A sepharose column as described (Marklund et al, Clin. Chim. Acta 126:4 (1982)). SOD activity: EC-SOD activity and total SOD activity (CuZn SOD and Mn SOD) remaining after EC-SOD extraction were measured by inhibition of cytochrome C reduction at pH 10, as previously described (Crapo et al, Methods Enzymol. 53:382 (1978)). Total protein was determined by the BCA protein assay (Pierce, Rockford, Ill.). The SOD activities were then expressed as units/mg total protein. To determine the extent of EC-SOD and CuZn SOD inhibition by diethyldithiocarbamate, mice were given diethyldithiocarbamate and sacrificed one hour later. The brains were removed and assayed for EC-SOD and CuZn SOD activity as described above.

CuZn SOD = molecular target: T2, CuZn SOD (Mus musculus, UniProt P08228); assay: Brain CuZn SOD activity after diethyldithiocarbamate; type: in vivo; details: transgenic and nontransgenic mice, sacrificed one hour later
T2 construct: from tissue; host or cells: mouse brain; homogenate fraction left after removal of EC-SOD on concanavalin A sepharose
T2 sequence (P08228 whole entry): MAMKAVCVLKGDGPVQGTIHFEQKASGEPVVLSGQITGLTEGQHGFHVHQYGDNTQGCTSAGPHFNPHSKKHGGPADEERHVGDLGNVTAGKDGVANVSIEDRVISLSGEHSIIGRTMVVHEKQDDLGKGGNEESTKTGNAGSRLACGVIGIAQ
Protocol: as §2

[4] = CNS oxygen toxicity, 6 ATA hyperbaric oxygen exposure; type: in vivo, mice; details: 6 ATA oxygen 25 minutes, DDC 400 mg/kg i.p. or LNNA 20 mg/kg i.p.
Protocol: Oxygen exposures: 7-8 week old mice were exposed to hyperbaric oxygen five at a time in a small-animal chamber (Bethlehem, Pa.). After flushing the chamber with pure oxygen, compression to 50 meters (6 ATA) was performed within 5 minutes. The oxygen concentration in the chamber was monitored continuously with a Servomex oxygen analyzer (model 572, Sybron, Norwood, Mass.) and maintained at ≳99%. The carbon dioxide concentration was analyzed from intermittent samples of chamber gas with an IR detector (IR Industries, Santa Barbara, Calif.) and was not allowed to rise above 0.1%. The chamber temperature was maintained at 25-26° C., but the compression of oxygen in the chamber raised the temperature to 30-32° C. transiently, but an environmental control system restored the normal chamber temperature within 3 minutes. […] The mice were observed continuously for signs of oxygen toxicity from the beginning of the exposure until 4 hours after removal from the chamber. The time to the first generalized convulsion (seizure latency) and the time to death were recorded. These exposure conditions are designed to cause CNS oxygen toxicity without appreciable evidence of pulmonary oxygen toxicity.
Treatment with diethyldithiocarbamate: One hour prior to exposure to 6 ATA oxygen, mice were given either i.p. injections of either 0.008 cc/g saline or 400 mg/kg diethyldithiocarbamate dissolves in normal saline (0.008 cc/g). The mice were then exposed to 6 ATA oxygen for 25 minutes as described above.
Treatment with β-mercaptoethanol: One hour prior to exposure to 6 ATA oxygen, mice were given either i.p. injections of 0.008 cc/g saline or 180 mg/kg β-mercaptoethanol (0.008 cc/g). This dose of β-mercaptoethanol was selected because it contains an equal number of reducing thiols as the dose of diethyldithiocarbamate. The mice were then exposed to 6 ATA oxygen for 30 minutes as described above.
Treatment with N-ω-nitro-L-arginine, an inhibitor of nitric oxide synthase: Ten minutes prior to beginning compression, 0.008 cc/g saline or 20 mg/kg (0.008 cc/g) N-ω-nitro-L-arginine dissolved in sterile water was given i.p to the transgenic and nontransgenic mice. Mice were then exposed at 6 ATA oxygen for 25 or 75 minutes as described above.

With `O=C(O)c1ccc(-c2c3nc(c(-c4ccc(C(=O)O)cc4)c4ccc([n-]4)c(-c4ccc(C(=O)O)cc4)c4nc(c(-c5ccc(C(=O)O)cc5)c5ccc2[n-]5)C=C4)C=C3)cc1.[Zn+2]` [ZnTBAP, reference compound] the “paraquat-induced LDH release / injury” value [1] was “does not protect against paraquat-induced injury”, the “hydrogen peroxide-induced endothelial cell injury” value [2] was “does not reduce” and the “SOD activity, fold less than MnTBAP” value [3] was 10 fold.
For `CCN(CC)C(=S)S` [diethyldithiocarbamate], the inhibition at 400 mg/kg (EC-SOD) was 80%, the inhibition at 400 mg/kg (CuZn SOD) was 60% and the Survival ([4]; nontransgenic mice) was 93%. It also gave a Survival ([4]; transgenic mice) of 100%.
